Key:
ICR mice = experiment: Acute toxicity of MASA to mice p.o.; format: in vivo; conditions: P = 0.05
Procedure: (§1) The acute toxicity of MASA was determined on Wistar rats and ICR mice by p.o. introduction.
(§2) Male IRC mice with body mass of 20-22 g and Wistar rats with body mass of 200-230 g were used. For determining the acute toxicity each dose was given to 6 animals, each next dose was increased by 500 mg/kg. LD50 was calculated after Karber by the method of Akhila J S et al, Current Sci 2007; 93:917-920 with modification for determining the dose confidence interval (Turner R In Screening Methods in Pharmacology, Acad. Press, New York, 1965, 61-63).
(§3) LD50 was calculated as follows: LD50=Least dose lethal to all in a group−Σ(a×b)/N N—number of animals in each group a—the dose difference b—the mean mortality (lethality in 2 neighbouring groups/2)
(§4) MASA was dissolved ex tempore in 0.2% agar-agar and introduced per os through catheter into stomach. […] Animals were observed till the Day 10 after introduction.

Wistar rats [1] = experiment: Acute toxicity of MASA to rats p.o.; format: in vivo; conditions: P = 0.05
Procedure: as §1, §2, §3, §4

Wistar rats [2] = conditions: rats p.o., cited from earlier work

| Structure (SMILES) | confidence interval for LD50 (ICR mice) | confidence interval for LD50 (Wistar rats [1]) | LD50 (Wistar rats [2]; given by Bayer AG) | Acute toxicity (LD50) (Wistar rats [2]; given by Boehringer Ingelheim, Acros Chemicals, Sigma-Aldrich) |
| --- | --- | --- | --- | --- |
| CC(=O)Oc1ccccc1C(=O)[O-].C[N+](C)(C)NCCC(=O)O [MASA, 3-(trimethylammonioamino)propanoate Acetylsalicylic Acid Addition Salt] | Factor f at P = 0.05 for this experiment is 1.32, therefore the confidence interval for LD50 is 1642-2860 (mg/kg). | Factor f at P = 0.05 for this experiment is 1.308, therefore the confidence interval for LD50 is 1720 ÷ 2944 (mg/kg). | – | – |
| CC(=O)Oc1ccccc1C(=O)O [ASA, acetylsalicylic acid] | – | – | > 1100 mg/kg | 200 mg/kg |
